The supplement of paper PMC10307832

Tests used:
Experiment in all cases: relative viability (nuclei count vs DMSO), 5 days (fraction); higher = more cells survive
[1] = system: NCI-H358
Summary of the method: (§1)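 The day after seeding in 1536-well plates, lung cancer cell lines were treated by pin tool with a single drug, or with a fixed anchor-drug dose together with five library-drug doses (not always all listed) in √10 steps. After 5 days, a combined fix-and-stain solution (final 0.05% Triton X-100, 1% formaldehyde, 1 ug/ml Hoechst) was added. Nuclei counted on 4× images gave relative viability as treated counts over vehicle counts, reported as the median of duplicate plates.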

[2] = system: PC-14
Summary of the method: as §1

[3] = system: NCI-H838
Summary of the method: as §1

[4] = system: HOP-62
Summary of the method: as §1

[5] = system: NCI-H1993
Summary of the method: as §1

[6] = system: LC-2-ad
Summary of the method: as §1

[7] = system: LU99A
Summary of the method: as §1

[8] = system: HCC-44
Summary of the method: as §1

[9] = system: EPLC-272H
Summary of the method: as §1

[10] = system: NCI-H650
Summary of the method: as §1

[11] = system: NCI-H2085
Summary of the method: as §1

[12] = system: NCI-H1355
Summary of the method: as §1

[13] = system: HARA
Summary of the method: as §1

[14] = system: NCI-H2347
Summary of the method: as §1

[15] = system: NCI-H1651
Summary of the method: as §1

[16] = system: NCI-H2126
Summary of the method: as §1

[17] = system: HCC-15
Summary of the method: as §1

[18] = system: ABC-1
Summary of the method: as §1

[19] = system: NCI-H1915
Summary of the method: as §1

Compound: O=c1cc(-c2cccc3c2Sc2ccccc2S3)oc(N2CCOCC2)c1 + NC(=O)Nc1cc(-c2cccc(F)c2)sc1C(=O)N[C@H]1CCCNC1 [AZD7762] (partner 0.2 µM)
- relative viability ([1]; first compound 0.08 µM): 0.456
- relative viability ([1]; first compound 0.253 µM): 0.581
- relative viability ([1]; first compound 0.8 µM): 0.523
- relative viability ([1]; first compound 2.53 µM): 0.501
- relative viability ([1]; first compound 8 µM): 0.534
- relative viability ([2]; first compound 0.08 µM): 0.338
- relative viability ([2]; first compound 0.253 µM): 0.45
- relative viability ([2]; first compound 0.8 µM): 0.264
- relative viability ([2]; first compound 2.53 µM): 0.263
- relative viability ([2]; first compound 8 µM): 0.381
- relative viability ([3]; first compound 0.08 µM): 0.933
- relative viability ([3]; first compound 0.253 µM): 1.09
- relative viability ([3]; first compound 0.8 µM): 0.898
- relative viability ([3]; first compound 2.53 µM): 0.941
- relative viability ([3]; first compound 8 µM): 0.98
- relative viability ([4]; first compound 0.08 µM): 0.477
- relative viability ([4]; first compound 0.253 µM): 0.61
- relative viability ([4]; first compound 0.8 µM): 0.869
- relative viability ([4]; first compound 2.53 µM): 0.493
- relative viability ([4]; first compound 8 µM): 0.944
- relative viability ([5]; first compound 0.08 µM): 0.707
- relative viability ([5]; first compound 0.253 µM): 0.763
- relative viability ([5]; first compound 0.8 µM): 0.556
- relative viability ([5]; first compound 2.53 µM): 0.749
- relative viability ([5]; first compound 8 µM): 0.728
- relative viability ([6]; first compound 0.08 µM): 0.805
- relative viability ([6]; first compound 0.253 µM): 0.944
- relative viability ([6]; first compound 0.8 µM): 0.853
- relative viability ([6]; first compound 2.53 µM): 0.741
- relative viability ([6]; first compound 8 µM): 0.797
- relative viability ([7]; first compound 0.08 µM): 0.28
- relative viability ([7]; first compound 0.253 µM): 0.349
- relative viability ([7]; first compound 0.8 µM): 0.38
- relative viability ([7]; first compound 2.53 µM): 0.309
- relative viability ([7]; first compound 8 µM): 0.456
- relative viability ([8]; first compound 0.08 µM): 1.06
- relative viability ([8]; first compound 0.253 µM): 1.04
- relative viability ([8]; first compound 0.8 µM): 0.937
- relative viability ([8]; first compound 2.53 µM): 0.991
- relative viability ([8]; first compound 8 µM): 0.986
- relative viability ([9]; first compound 0.08 µM): 0.19
- relative viability ([9]; first compound 0.253 µM): 0.242
- relative viability ([9]; first compound 0.8 µM): 0.22
- relative viability ([9]; first compound 2.53 µM): 0.24
- relative viability ([9]; first compound 8 µM): 0.248
- relative viability ([10]; first compound 0.08 µM): 0.886
- relative viability ([10]; first compound 0.253 µM): 1.09
- relative viability ([10]; first compound 0.8 µM): 1.03
- relative viability ([10]; first compound 2.53 µM): 0.668
- relative viability ([10]; first compound 8 µM): 1.01
- relative viability ([11]; first compound 0.08 µM): 1.01
- relative viability ([11]; first compound 0.253 µM): 1.17
- relative viability ([11]; first compound 0.8 µM): 1.02
- relative viability ([11]; first compound 2.53 µM): 0.836
- relative viability ([11]; first compound 8 µM): 0.614
- relative viability ([12]; first compound 0.08 µM): 0.703
- relative viability ([12]; first compound 0.253 µM): 0.915
- relative viability ([12]; first compound 0.8 µM): 0.743
- relative viability ([12]; first compound 2.53 µM): 0.554
- relative viability ([12]; first compound 8 µM): 0.756
- relative viability ([13]; first compound 0.08 µM): 0.234
- relative viability ([13]; first compound 0.253 µM): 0.327
- relative viability ([13]; first compound 0.8 µM): 0.364
- relative viability ([13]; first compound 2.53 µM): 0.208
- relative viability ([13]; first compound 8 µM): 0.256
- relative viability ([14]; first compound 0.08 µM): 0.738
- relative viability ([14]; first compound 0.253 µM): 0.798
- relative viability ([14]; first compound 0.8 µM): 0.799
- relative viability ([14]; first compound 2.53 µM): 0.749
- relative viability ([14]; first compound 8 µM): 0.701
- relative viability ([15]; first compound 0.08 µM): 0.452
- relative viability ([15]; first compound 0.253 µM): 0.538
- relative viability ([15]; first compound 0.8 µM): 0.44
- relative viability ([15]; first compound 2.53 µM): 0.389
- relative viability ([15]; first compound 8 µM): 0.425
- relative viability ([16]; first compound 0.08 µM): 1.02
- relative viability ([16]; first compound 0.253 µM): 1.16
- relative viability ([16]; first compound 0.8 µM): 1.04
- relative viability ([16]; first compound 2.53 µM): 1.03
- relative viability ([16]; first compound 8 µM): 1.04
- relative viability ([17]; first compound 0.08 µM): 1.22
- relative viability ([17]; first compound 0.253 µM): 1.51
- relative viability ([17]; first compound 0.8 µM): 1.18
- relative viability ([17]; first compound 2.53 µM): 1.18
- relative viability ([17]; first compound 8 µM): 1.28
- relative viability ([18]; first compound 0.08 µM): 0.738
- relative viability ([18]; first compound 0.253 µM): 0.7
- relative viability ([18]; first compound 0.8 µM): 0.714
- relative viability ([18]; first compound 2.53 µM): 1
- relative viability ([18]; first compound 8 µM): 0.875
- relative viability ([19]; first compound 0.08 µM): 0.716
- relative viability ([19]; first compound 0.253 µM): 0.761
- relative viability ([19]; first compound 0.8 µM): 0.795
- relative viability ([19]; first compound 2.53 µM): 0.681
- relative viability ([19]; first compound 8 µM): 0.716
